Experiments:
[1] = chelating agent for ^68Ga; cited from earlier work
[2] = biological target: PSMA (Homo sapiens, UniProt Q04609); assay: PSMA inhibition assay; assay type: biochemical; details: LNCaP cell lysates, 4 µM NAAG, Cheng-Prusoff conversion
Sequence of PSMA (Q04609 whole entry): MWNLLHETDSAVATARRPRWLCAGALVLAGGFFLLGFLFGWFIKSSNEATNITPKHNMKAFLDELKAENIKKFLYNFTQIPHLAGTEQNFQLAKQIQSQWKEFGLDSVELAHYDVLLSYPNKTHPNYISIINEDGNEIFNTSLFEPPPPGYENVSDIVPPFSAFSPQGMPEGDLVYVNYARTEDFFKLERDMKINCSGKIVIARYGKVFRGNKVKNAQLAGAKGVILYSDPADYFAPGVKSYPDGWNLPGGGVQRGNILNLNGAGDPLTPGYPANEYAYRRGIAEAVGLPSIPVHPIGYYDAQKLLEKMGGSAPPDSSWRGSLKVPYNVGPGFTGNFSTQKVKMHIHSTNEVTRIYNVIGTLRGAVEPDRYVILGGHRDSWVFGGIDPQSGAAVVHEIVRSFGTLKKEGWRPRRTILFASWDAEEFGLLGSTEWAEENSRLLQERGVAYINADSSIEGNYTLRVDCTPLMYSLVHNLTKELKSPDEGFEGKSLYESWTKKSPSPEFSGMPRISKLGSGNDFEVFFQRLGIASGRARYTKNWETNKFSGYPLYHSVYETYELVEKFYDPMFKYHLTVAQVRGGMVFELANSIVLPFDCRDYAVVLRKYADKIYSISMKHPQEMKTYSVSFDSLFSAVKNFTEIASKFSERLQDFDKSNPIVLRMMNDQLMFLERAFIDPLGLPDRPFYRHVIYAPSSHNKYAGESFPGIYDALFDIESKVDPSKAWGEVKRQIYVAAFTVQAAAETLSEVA

Ki [2] | Compound | stability constant, KML [1]
 | O=C(O)CN1CCN(CC(=O)O)CCN(CC(=O)O)CCN(CC(=O)O)CC1 [DOTA] | 21.3
 | O=C(O)CN1CCN(CC(=O)O)CCN(CC(=O)O)CC1 [NOTA, 1,4,7-triazacyclononane-1,4,7-triacetic acid] | 31.1
0.03 nM | O=C(O)CCc1ccc(O)c(CN(CCN(CC(=O)O)Cc2cc(CCC(=O)NCCCCCC(=O)NCCCC[C@H](NC(=O)N[C@@H](CCC(=O)O)C(=O)O)C(=O)O)ccc2O)CC(=O)O)c1 [DKFZ-PSMA-11, Glu-urea-Lys-(Ahx)-HBED-CC] | 

From paper PMC5290997 (Bioconjugate chemistry, 2016)
